{
  "source": "paper PMC7206119",
  "about": "“RIP1 inhibition blocks inflammatory diseases but not tumor growth or metastases” (Cell Death and Differentiation, 2019)",
  "test_in_all_cases": "biochemical",
  "set-up_in_all_cases": "DiscoverX kinase panel, active-site competition binding (KINOMEscan type), percent of control at one concentration",
  "conditions_in_all_cases": "competition binding, percent of control",
  "key": {"CDK2": {"molecular_target": "CDK2 (Homo sapiens, UniProt P24941)"}, "CDK4": {"molecular_target": "CDK4 (Homo sapiens, UniProt P11802)"}, "CDK9": {"molecular_target": "CDK9 (Homo sapiens, UniProt P50750)"}, "DDR1": {"molecular_target": "DDR1 (Homo sapiens, UniProt Q08345)", "sequence (Q08345 whole entry)": "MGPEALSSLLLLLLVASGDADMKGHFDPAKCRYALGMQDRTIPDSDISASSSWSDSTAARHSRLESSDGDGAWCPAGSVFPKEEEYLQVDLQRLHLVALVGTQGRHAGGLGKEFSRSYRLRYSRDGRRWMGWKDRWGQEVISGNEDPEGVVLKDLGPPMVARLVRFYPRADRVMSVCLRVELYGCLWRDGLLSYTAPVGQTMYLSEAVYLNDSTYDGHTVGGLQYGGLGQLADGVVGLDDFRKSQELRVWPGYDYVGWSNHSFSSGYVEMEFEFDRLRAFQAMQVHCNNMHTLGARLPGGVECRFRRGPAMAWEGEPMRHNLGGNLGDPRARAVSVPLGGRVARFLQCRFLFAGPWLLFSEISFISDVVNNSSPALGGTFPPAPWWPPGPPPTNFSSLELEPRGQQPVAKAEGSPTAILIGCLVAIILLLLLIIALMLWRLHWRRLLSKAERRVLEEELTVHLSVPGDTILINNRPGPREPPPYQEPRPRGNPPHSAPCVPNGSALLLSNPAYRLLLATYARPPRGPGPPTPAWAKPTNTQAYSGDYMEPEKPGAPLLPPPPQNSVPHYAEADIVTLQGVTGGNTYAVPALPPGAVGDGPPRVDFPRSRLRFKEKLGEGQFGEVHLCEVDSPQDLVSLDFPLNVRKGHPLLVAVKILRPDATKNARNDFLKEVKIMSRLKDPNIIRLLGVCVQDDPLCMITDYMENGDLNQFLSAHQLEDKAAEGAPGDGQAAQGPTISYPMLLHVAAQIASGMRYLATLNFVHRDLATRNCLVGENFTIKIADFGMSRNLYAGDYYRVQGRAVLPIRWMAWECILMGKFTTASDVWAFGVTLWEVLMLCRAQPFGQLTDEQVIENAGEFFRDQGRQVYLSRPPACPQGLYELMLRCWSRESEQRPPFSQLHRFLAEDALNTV"}, "EGFR(L747-T751del,Sins)": {"molecular_target": "EGFR(L747-T751del,Sins) (Homo sapiens, UniProt P00533, DEL747-750/T751S)"}, "EPHA8": {"molecular_target": "EPHA8 (Homo sapiens, UniProt P29322)"}, "FYN": {"molecular_target": "FYN (Homo sapiens, UniProt P06241)", "sequence (P06241 whole entry)": "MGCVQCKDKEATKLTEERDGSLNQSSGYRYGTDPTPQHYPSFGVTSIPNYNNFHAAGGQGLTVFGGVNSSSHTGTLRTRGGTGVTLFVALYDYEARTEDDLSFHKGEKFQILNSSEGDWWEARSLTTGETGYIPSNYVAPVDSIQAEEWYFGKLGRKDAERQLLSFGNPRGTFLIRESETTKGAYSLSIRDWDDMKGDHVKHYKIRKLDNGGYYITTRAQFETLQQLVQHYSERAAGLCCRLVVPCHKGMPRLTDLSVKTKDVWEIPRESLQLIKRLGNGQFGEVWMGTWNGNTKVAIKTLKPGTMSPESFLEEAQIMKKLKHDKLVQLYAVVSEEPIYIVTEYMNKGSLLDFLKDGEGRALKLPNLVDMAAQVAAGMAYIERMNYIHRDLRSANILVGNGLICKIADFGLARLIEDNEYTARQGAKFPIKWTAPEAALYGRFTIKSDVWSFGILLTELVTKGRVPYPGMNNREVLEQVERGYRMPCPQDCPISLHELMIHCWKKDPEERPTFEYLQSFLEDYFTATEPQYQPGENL"}, "HUNK": {"molecular_target": "HUNK (Homo sapiens, UniProt P57058)"}, "MAPKAPK2": {"molecular_target": "MAPKAPK2 (Homo sapiens, UniProt P49137)"}, "MEK6": {"molecular_target": "T1, MEK6 (Homo sapiens, UniProt P52564)", "T1 construct": "gene MAP2K6"}, "MLK1": {"molecular_target": "T2, MLK1 (Homo sapiens, UniProt P80192)", "T2 construct": "gene MAP3K9"}, "MST1R": {"molecular_target": "MST1R (Homo sapiens, UniProt Q04912)"}, "MST4": {"molecular_target": "T3, MST4 (Homo sapiens, UniProt Q9P289)", "T3 construct": "gene STK26"}, "NIM1": {"molecular_target": "T4, NIM1 (Homo sapiens, UniProt Q8IY84)", "T4 construct": "gene NIM1K"}, "PDGFRA": {"molecular_target": "PDGFRA (Homo sapiens, UniProt P16234)", "sequence (P16234 whole entry)": "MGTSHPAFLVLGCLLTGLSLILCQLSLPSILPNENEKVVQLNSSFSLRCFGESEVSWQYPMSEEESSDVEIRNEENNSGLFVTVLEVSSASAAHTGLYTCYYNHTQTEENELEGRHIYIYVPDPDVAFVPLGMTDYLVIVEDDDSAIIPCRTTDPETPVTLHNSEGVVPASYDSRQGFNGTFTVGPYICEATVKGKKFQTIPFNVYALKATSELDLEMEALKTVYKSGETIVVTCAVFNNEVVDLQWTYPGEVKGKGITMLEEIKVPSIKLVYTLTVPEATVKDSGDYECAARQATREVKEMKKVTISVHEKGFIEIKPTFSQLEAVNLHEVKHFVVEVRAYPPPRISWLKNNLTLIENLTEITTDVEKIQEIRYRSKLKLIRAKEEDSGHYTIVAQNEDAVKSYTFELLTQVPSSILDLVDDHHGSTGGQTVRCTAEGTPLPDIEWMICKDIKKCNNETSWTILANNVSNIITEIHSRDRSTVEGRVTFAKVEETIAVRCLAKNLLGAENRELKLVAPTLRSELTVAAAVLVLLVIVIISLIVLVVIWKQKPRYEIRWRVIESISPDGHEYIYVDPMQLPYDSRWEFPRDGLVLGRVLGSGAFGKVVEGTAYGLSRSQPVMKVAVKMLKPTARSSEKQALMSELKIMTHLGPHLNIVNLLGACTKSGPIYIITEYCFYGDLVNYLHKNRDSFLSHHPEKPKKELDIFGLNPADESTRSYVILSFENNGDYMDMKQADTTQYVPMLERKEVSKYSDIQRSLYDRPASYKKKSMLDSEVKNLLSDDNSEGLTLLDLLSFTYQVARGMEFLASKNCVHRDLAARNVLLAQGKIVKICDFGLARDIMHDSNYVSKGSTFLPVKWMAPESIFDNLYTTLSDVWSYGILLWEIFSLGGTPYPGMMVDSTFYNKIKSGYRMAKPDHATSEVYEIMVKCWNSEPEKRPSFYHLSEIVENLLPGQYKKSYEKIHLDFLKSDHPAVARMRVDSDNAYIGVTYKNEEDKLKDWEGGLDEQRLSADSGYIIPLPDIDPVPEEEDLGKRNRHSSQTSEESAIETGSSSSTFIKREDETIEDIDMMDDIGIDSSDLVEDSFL"}, "PHKG2": {"molecular_target": "PHKG2 (Homo sapiens, UniProt P15735)", "sequence (P15735 whole entry)": "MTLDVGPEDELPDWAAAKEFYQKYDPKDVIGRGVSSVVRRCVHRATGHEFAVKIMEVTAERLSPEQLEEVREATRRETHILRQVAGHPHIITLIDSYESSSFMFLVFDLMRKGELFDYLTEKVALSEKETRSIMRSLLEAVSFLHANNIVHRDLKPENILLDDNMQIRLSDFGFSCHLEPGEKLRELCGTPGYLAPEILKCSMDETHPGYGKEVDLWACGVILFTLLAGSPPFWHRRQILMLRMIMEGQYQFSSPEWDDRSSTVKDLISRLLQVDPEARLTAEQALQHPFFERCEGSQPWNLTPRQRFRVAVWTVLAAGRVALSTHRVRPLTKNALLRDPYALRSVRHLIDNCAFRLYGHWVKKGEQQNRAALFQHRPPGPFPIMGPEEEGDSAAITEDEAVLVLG"}, "PIK3CA(Q546K)": {"molecular_target": "PIK3CA(Q546K) (Homo sapiens, UniProt P42336, Q546K)", "sequence (P42336 whole entry Q546K)": "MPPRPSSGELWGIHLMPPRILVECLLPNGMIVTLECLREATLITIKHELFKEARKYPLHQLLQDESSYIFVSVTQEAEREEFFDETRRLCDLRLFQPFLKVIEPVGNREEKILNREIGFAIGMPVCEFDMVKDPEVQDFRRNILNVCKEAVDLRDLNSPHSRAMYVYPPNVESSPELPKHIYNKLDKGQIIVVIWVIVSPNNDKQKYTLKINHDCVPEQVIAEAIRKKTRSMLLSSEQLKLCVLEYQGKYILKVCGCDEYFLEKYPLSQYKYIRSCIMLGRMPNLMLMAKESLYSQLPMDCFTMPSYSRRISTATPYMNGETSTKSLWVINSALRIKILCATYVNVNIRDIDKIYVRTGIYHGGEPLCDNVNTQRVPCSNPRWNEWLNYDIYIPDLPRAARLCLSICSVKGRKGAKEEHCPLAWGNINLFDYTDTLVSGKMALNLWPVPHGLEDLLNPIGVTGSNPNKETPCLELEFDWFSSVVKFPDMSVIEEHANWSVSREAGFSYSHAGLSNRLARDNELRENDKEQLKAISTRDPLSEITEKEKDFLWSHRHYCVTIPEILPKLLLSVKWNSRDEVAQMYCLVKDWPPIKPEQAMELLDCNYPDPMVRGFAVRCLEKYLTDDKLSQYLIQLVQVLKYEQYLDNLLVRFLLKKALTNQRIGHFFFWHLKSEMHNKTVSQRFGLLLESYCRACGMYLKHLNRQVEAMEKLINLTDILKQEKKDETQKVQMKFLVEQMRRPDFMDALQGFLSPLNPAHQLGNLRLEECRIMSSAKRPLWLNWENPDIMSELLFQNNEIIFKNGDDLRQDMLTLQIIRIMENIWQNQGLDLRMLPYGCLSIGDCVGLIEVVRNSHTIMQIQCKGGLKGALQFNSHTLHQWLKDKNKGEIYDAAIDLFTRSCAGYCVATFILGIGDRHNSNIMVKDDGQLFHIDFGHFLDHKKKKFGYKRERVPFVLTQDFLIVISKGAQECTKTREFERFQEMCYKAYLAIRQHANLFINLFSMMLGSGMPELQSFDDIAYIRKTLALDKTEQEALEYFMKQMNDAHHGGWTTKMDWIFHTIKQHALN"}, "S6K1": {"molecular_target": "T5, S6K1 (Homo sapiens, UniProt P23443)", "T5 construct": "gene RPS6KB1"}, "TBK1": {"molecular_target": "TBK1 (Homo sapiens, UniProt Q9UHD2)"}, "TGFBR1": {"molecular_target": "TGFBR1 (Homo sapiens, UniProt P36897)", "sequence (P36897 whole entry)": "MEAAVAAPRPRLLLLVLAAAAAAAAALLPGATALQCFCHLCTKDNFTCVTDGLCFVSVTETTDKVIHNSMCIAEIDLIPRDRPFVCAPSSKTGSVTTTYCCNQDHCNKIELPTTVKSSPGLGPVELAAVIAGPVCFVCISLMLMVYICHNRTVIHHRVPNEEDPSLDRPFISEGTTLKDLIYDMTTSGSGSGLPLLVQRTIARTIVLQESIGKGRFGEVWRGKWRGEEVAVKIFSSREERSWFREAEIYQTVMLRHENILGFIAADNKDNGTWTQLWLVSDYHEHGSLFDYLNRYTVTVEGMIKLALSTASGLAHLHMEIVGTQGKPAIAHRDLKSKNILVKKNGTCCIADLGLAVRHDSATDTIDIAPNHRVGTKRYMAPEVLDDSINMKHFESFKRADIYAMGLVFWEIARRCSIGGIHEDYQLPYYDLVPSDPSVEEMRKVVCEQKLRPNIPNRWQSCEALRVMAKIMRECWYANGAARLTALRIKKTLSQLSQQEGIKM"}, "YANK3": {"molecular_target": "T6, YANK3 (Homo sapiens, UniProt Q86UX6)", "T6 construct": "gene STK32C", "T6 sequence (Q86UX6 whole entry)": "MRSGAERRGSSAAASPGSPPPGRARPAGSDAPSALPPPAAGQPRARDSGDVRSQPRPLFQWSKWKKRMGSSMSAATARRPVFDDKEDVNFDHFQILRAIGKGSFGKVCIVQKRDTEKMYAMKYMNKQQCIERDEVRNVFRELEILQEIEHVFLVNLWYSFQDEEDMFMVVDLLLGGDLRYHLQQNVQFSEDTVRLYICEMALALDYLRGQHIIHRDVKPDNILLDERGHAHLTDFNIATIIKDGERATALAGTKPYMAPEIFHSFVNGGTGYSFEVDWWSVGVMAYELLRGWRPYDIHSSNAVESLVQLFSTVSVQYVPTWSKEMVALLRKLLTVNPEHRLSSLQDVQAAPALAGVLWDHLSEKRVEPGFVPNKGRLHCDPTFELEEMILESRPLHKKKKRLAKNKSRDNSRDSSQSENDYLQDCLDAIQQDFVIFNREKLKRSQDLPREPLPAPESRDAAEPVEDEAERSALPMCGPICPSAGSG"}},
  "data": [
    {"smiles": "COc1cc2c(cn1)N(C)C(=O)[C@@H](NC(=O)c1nc3n(n1)[C@H](c1ccccc1)CC3)CC2", "note": "[GNE684, (S)-N-((S)-7-methoxy-1-methyl-2-oxo-2,3,4,5-tetrahydro-1H-pyrido[3,4-b]azepin-3-yl)-5-phenyl-6,7-dihydro-5H-pyrrolo[1,2-b][1,2,4]triazole-2-carboxamide]", "values": [
      {"measurement": "remaining binding at 10 µM", "setting": "CDK2", "result": 100, "unit": "%"},
      {"measurement": "remaining binding at 10 µM", "setting": "CDK4", "result": 100, "unit": "%"},
      {"measurement": "remaining binding at 10 µM", "setting": "CDK9", "result": 97, "unit": "%"},
      {"measurement": "remaining binding at 10 µM", "setting": "DDR1", "result": 100, "unit": "%"},
      {"measurement": "remaining binding at 10 µM", "setting": "EGFR(L747-T751del,Sins)", "result": 84, "unit": "%"},
      {"measurement": "remaining binding at 10 µM", "setting": "EPHA8", "result": 100, "unit": "%"},
      {"measurement": "remaining binding at 10 µM", "setting": "FYN", "result": 100, "unit": "%"},
      {"measurement": "remaining binding at 10 µM", "setting": "HUNK", "result": 94, "unit": "%"},
      {"measurement": "remaining binding at 10 µM", "setting": "MAPKAPK2", "result": 100, "unit": "%"},
      {"measurement": "remaining binding at 10 µM", "setting": "MEK6", "result": 100, "unit": "%"},
      {"measurement": "remaining binding at 10 µM", "setting": "MLK1", "result": 99, "unit": "%"},
      {"measurement": "remaining binding at 10 µM", "setting": "MST1R", "result": 94, "unit": "%"},
      {"measurement": "remaining binding at 10 µM", "setting": "MST4", "result": 100, "unit": "%"},
      {"measurement": "remaining binding at 10 µM", "setting": "NIM1", "result": 89, "unit": "%"},
      {"measurement": "remaining binding at 10 µM", "setting": "PDGFRA", "result": 100, "unit": "%"},
      {"measurement": "remaining binding at 10 µM", "setting": "PHKG2", "result": 75, "unit": "%"},
      {"measurement": "remaining binding at 10 µM", "setting": "PIK3CA(Q546K)", "result": 49, "unit": "%"},
      {"measurement": "remaining binding at 10 µM", "setting": "S6K1", "result": 88, "unit": "%"},
      {"measurement": "remaining binding at 10 µM", "setting": "TBK1", "result": 94, "unit": "%"},
      {"measurement": "remaining binding at 10 µM", "setting": "TGFBR1", "result": 97, "unit": "%"},
      {"measurement": "remaining binding at 10 µM", "setting": "YANK3", "result": 93, "unit": "%"}
    ]}
  ]
}
